In the assay the test system is CEM cells HIV-1 protection, formazan growth assay. Nature of the assay: NCI AIDS Antiviral Assay. Conditions: for IC50: measured here: growth of uninfected CEM cells. In outline:
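Protection of CEM cells against HIV-1 measured as cell growth via soluble formazan read-out, with five concentrations tested on both infected and uninfected cells; failure to protect may reflect toxicity.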

The record followed here is PubChem BioAssay AID179 (DTP/NCI, 2004).

Activity calls are given as the source filed them.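 How the source made its calls: active means compounds giving half or more protection of infected cells from virus-caused growth loss, again on retest; inactive means the rest.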 Where a SMILES comes first, the peptide text is derived from it. [ ]: non-standard residue; d: D form. The star is where a group is joined. ξ: configuration not given here. Cbz = O=C(OCc1ccccc1)*; Bz = O=C(c1ccccc1)*; Bn = c1ccc(C*)cc1; ξC = NC(CS)C(=O)O A value given as a limit tells only on which side of the number the result lay.

What is called EC50 is the concentration that produces a half-maximal response. As a reminder, the IC50 is the point on the concentration scale where inhibition reaches its midpoint. Low values mean inhibition by little substance, high ones a need for much substance.

For the molecule `CN(CCc1ccccn1)C(=S)N/N=C/c1ccccn1`, the EC50 is above 0.2 µM and the IC50 is 0.0251 µM.

In the case of `O=C(O)c1n[nH][nH]c1=S`, the EC50 is 126 µM and the concentration for half-maximal inhibition (IC50) is above 200 µM.

Regarding `c1ccc(NNN2NC(c3ccccc3)C2c2ccccc2)cc1` (centres undefined), the EC50 is above 200 µM and the IC50 was above 200 µM.

For `COc1ccc2c(c1)CCN1CCCc3ccc(OC)cc3C21` (centres undefined), the EC50 is above 200 µM and the 50% inhibitory concentration (IC50) is 51.3 µM.

With `O=C(O)CN1CCSc2ccccc2CN(CC(=O)O)CCSc2ccccc2C1`, the EC50 is above 562 µM and the IC50 is above 562 µM.

For `NC(=O)NNc1nc(-c2ccccc2)cs1`, the EC50 was above 200 µM and the IC50 is 87.1 µM.

`CC12CCc3ccccc3C1=NNC(=O)C2` (centres undefined): the EC50 is above 170 µM and the IC50 is above 170 µM.

For `O=C1Cc2c(-c3cccs3)cc(-c3ccccc3)nc2-c2ccccc2N1`, the EC50 was above 200 µM and the IC50 amounted to 46.8 µM.

On to `C=CCCC(=O)C(=[N+]=[N-])C(=O)CCC(=O)c1ccccc1`, for which the EC50 is above 200 µM and the IC50 came to 20 µM.

`COC(=O)C1C=CCON2CCc3c(n(S(=O)(=O)c4ccccc4)c4ccccc34)C12` (centres undefined): the EC50 was above 22.9 µM and the IC50 is above 22.9 µM.

Regarding `N=C(N)SCc1ccc(Cl)cc1Cl` (tested in a mixture with another compound), the EC50 is above 100 µM and the 50% inhibitory concentration (IC50) was determined as 60.3 µM.

For `CC(=O)N[C@H]1CC2(C=C(Br)C(=O)C(Br)=C2)OC1=O`, the EC50 is above 33.1 µM and the half-maximal inhibitory concentration (IC50) stood at 5.13 µM.

As for `CC1(c2ccc(Cl)cc2)OC(=O)c2c1ccc1ccccc21` (centres undefined), the outcome was inactive.

For the molecule `Oc1ccc2c(c1)-c1c(c3ccccc3n1CCN1CCOCC1)CC2`, the EC50 was above 200 µM and the IC50 came to 32.4 µM.

Regarding `CC1=NN2C(=O)CSC2=NC(C)(C)C1`, the EC50 is 263 µM and the half-maximal inhibitory concentration (IC50) turned out to be 1170 µM.

Regarding `CCN(CC)C(=S)SS(=O)(=O)c1ccc(N)cc1`, the EC50 was above 200 µM and the half-inhibitory concentration (IC50) was determined as 56.2 µM.

Regarding `CCOC(=O)/N=C(\N)SCc1ccccc1`, the result was inactive.

For the molecule `COC1CC(C)(NC(C)=O)C2OC(c3ccccc3)OCC2O1` (centres undefined), the EC50 was above 200 µM and the IC50 was above 200 µM.

As for `O=C(NC1C=Nc2ccc(Cl)cc2NC1=O)c1ccc2ccccc2c1` (centres undefined), the EC50 is above 200 µM and the IC50 is above 200 µM.

As for `C/C(=N\NC(=O)CC#N)C(CN1CCCCC1)C(c1ccccc1)c1c(O)c2ccccc2oc1=O` (centres undefined), the EC50 is above 70.8 µM and the IC50 is 40.7 µM.

Regarding `N/N=C(\c1ccccc1)c1ccc([N+](=O)[O-])cc1`, the EC50 was above 135 µM and the IC50 stood at 97.7 µM.

For the molecule `CN(C(=O)c1ccc(Cl)cc1)C(=S)N1CCN(c2ccccc2)CC1`, the EC50 is above 19.5 µM and the 50% inhibitory concentration (IC50) was above 19.5 µM.

For the molecule `NC(=O)c1ccccc1NC(=O)C(=O)C(C(=O)c1ccc2ccccc2c1)C1OC(=O)c2ccccc21` (centres undefined), the EC50 is above 52.5 µM and the IC50 worked out at 15.8 µM.

Turning to `CCC(C)C(NC(=O)C1CCCN1C(=O)OCc1ccccc1)C(=O)O` (stereo not drawn) (Cbz-Pro-Ile-OH; configuration not given here), the EC50 was above 692 µM and the half-inhibitory concentration (IC50) is above 692 µM.

Take `CC(=O)[O-].O=S(=O)(Nc1ncccn1)c1ccc(N=Cc2ccccc2O)cc1.O=S(=O)(Nc1ncccn1)c1ccc(N=Cc2ccccc2O)cc1.[Co+2]`: the EC50 was above 200 µM and the half-maximal inhibitory concentration (IC50) turned out to be 39.8 µM.

With `CC(C)(C)N=c1n(C(C)(C)C)oc(=O)n1-c1ccccc1`, the EC50 was above 50.1 µM and the IC50 was above 50.1 µM.

Regarding `CC(=O)C(C=NCCN=CC(C(C)=O)C(C)=O)C(C)=O.[Ni]`, the EC50 is above 200 µM and the 50% inhibitory concentration (IC50) is above 200 µM.

On to `NC(=O)c1cccc(N=O)c1`, for which the EC50 is above 200 µM and the IC50 amounted to 12.9 µM.

Turning to `Cc1ccc2c(c1)P(=O)(O)c1cc(C)ccc1S2(=O)=O`, the EC50 is above 200 µM and the IC50 is above 200 µM.

Consider `CS/C=C\C(=O)O[C@H]1C[C@@H]2[C@@H](O)c3occ(C)c3C[C@]2(C)[C@@H](C)C1`, for which the EC50 was above 200 µM and the IC50 turned out to be 30.2 µM.

Consider `CN(C)/N=N/c1nc[nH]c1C(N)=O`, for which the EC50 is above 74.1 µM and the concentration for half-maximal inhibition (IC50) amounted to 4.9 µM.

In the case of `COc1ccc(C(C)(O)c2cc3ccccc3n2S(=O)(=O)c2ccccc2)cc1` (centres undefined), the EC50 is above 200 µM and the IC50 was 16.2 µM.

With `O=c1cc[nH]c(=O)n1C1CCC(CO)O1` (centres undefined), the EC50 was above 200 µM and the half-inhibitory concentration (IC50) was above 200 µM.

As to `CCOC(=O)CN(c1sc(C)c(-c2ccccc2)c1C(=O)OCC)S(=O)(=O)c1ccc(C)cc1`, the EC50 is above 200 µM and the IC50 was 5.13 µM.

Turning to `CC1(C)O[C@@H]2[C@@H]3OC(=O)C[C@@H]3[C@@H](COCc3ccccc3)[C@@H]2O1`, the EC50 was above 200 µM and the concentration for half-maximal inhibition (IC50) was above 200 µM.

Take `Nc1cccc(C(=O)/C=C/c2ccccc2O)c1`: the EC50 was above 282 µM and the IC50 came out at 55 µM.

`CS(=O)(=O)N(N(CCCl)S(=O)(=O)c1ccccc1)S(C)(=O)=O`: the EC50 is above 126 µM and the IC50 worked out at 79.4 µM.

For the molecule `CC1OC1C(=O)P(=O)(O)O` (centres undefined), the EC50 is above 200 µM and the half-inhibitory concentration (IC50) is above 200 µM.

Take `COC(=O)C([O][Ge]([CH3])([CH3])[CH3])c1ccccc1` (centres undefined): the EC50 is above 251 µM and the IC50 was above 251 µM.

For the molecule `C=C(CCCO)[C@@H]1CC[C@@](C)(O)[C@H]1C`, the outcome was inactive.

Consider `CN1C(=O)C2CCCC(=O)N2c2cccnc21` (centres undefined), for which the EC50 was above 200 µM and the IC50 was above 200 µM.

Regarding `COc1c(O)c2c(=O)cc(OC)c3c4c(OC)cc(=O)c5c(O)c(OC)c6c(c(c1C(C(C)=O)C6C(C)O)c23)c54` (centres undefined), the EC50 was above 20 µM and the IC50 is 0.316 µM.

For `COc1ccc(/C=c2/s/c(=C(\C#N)c3nc4ccccc4[nH]3)n(-c3ccccc3)c2=O)cc1`, the EC50 was above 200 µM and the IC50 is 37.2 µM.

Regarding `COc1ccc(/C=C(\C#N)c2ccc([N+](=O)[O-])cc2)cc1[N+](=O)[O-]`, the EC50 is 182 µM and the half-inhibitory concentration (IC50) stood at 195 µM.

Consider `Cc1cc(N=Nc2ccc([N+](=O)[O-])cc2)c(NCC(O)C(O)C(O)CO)cc1C` (centres undefined), for which the EC50 was above 200 µM and the concentration for half-maximal inhibition (IC50) was 34.7 µM.

Regarding `CC(=O)Nc1cc(OCC(=O)O)ccc1S(=O)(=O)c1ccc(OCC(=O)O)cc1NC(C)=O`, the EC50 was above 200 µM and the IC50 was above 200 µM.

Turning to `CNC(=O)SC1=NS(=O)(=O)c2ccc(Cl)cc2N1`, the EC50 was 51.3 µM and the 50% inhibitory concentration (IC50) worked out at 186 µM.

Regarding `O=[N+]([O-])C(=C/C1CCCCC1)/C(=C\C1CCCCC1)[N+](=O)[O-]`, the EC50 is above 200 µM and the IC50 is 4.57 µM.

`[C-]#[O+].[C-]#[O+].[C-]#[O+].[C-]#[O+].[Cr].c1ccc(P(CCP(CCP(c2ccccc2)c2ccccc2)c2ccccc2)CCP(c2ccccc2)c2ccccc2)cc1` (centres undefined): the EC50 was above 1.74 µM and the concentration for half-maximal inhibition (IC50) was above 1.74 µM.

In the case of `Cn1ccc2c(C(=O)c3ccccc3)cccc2c1=O`, the outcome was inactive.

In the case of `CC1=NN(C(=O)CC(=O)Nc2ccc(C)cc2)C(=O)C1N=Nc1ccc(S(=O)(=O)c2ccc(N=NC3C(=O)N(C(=O)CC(=O)Nc4ccc(C)cc4)N=C3C)cc2)cc1` (centres undefined), the EC50 is above 50.1 µM and the half-inhibitory concentration (IC50) is above 50.1 µM.

Consider `COC(=O)C(CSCc1ccccc1)NC(=O)CNC(=O)c1ccccc1` (centres undefined) (Bz-Gly-[ξC](Bn)-OMe), for which the EC50 is above 245 µM and the IC50 stood at 219 µM.

Take `CC(C)(C)OC(=O)NC(Cc1ccc(OCc2ccccc2)cn1)C(N)=O` (centres undefined): the EC50 is above 200 µM and the IC50 was above 100 µM.

With `O=C1N2Cc3c4ccc5c3CN3C(=O)N6Cc7c(ccc(c7CN1C6(c1ccccc1)C23c1ccccc1)OCCOCCOc1cc(Br)c(Br)cc1OCCOCCO4)OCCOCCOc1cc(Br)c(Br)cc1OCCOCCO5` (centres undefined), the EC50 was above 0.55 µM and the IC50 is above 0.55 µM.

Turning to `N#C/C(=C\n1ccc(=O)[nH]c1=S)C(N)=O`, the EC50 is above 200 µM and the IC50 is above 200 µM.

As to `Cc1cccc2c1CCC21OC(=O)c2c1cc(F)c1ccccc21` (centres undefined), the EC50 was above 39.8 µM and the IC50 is 14.8 µM.

As to `O=c1c(SCc2ccc(F)cc2)c(SCc2ccc(F)cc2)cnn1-c1ccccc1`, the EC50 is above 15.8 µM and the IC50 was above 15.8 µM.

Regarding `CC(C)(C)C1=CC(=C2C(=O)C(=O)c3ccccc3C2=O)C=C(C(C)(C)C)C1=O`, the EC50 is above 6.92 µM and the concentration for half-maximal inhibition (IC50) is above 6.92 µM.

On to `C[Si](C)(C)/C(Br)=C\CCN1C(=O)CCC1O` (centres undefined), for which the outcome was inactive.

In the case of `CCOc1ccc(/C(O)=C/c2nc3ccccc3nc2/C=C(\O)c2ccc(OCC)cc2)cc1`, the EC50 is above 100 µM and the IC50 was above 100 µM.

Consider `COc1ccc(-c2cc(=O)c3c(O)c(OC)c(OC)c(OC)c3o2)cc1`, for which the EC50 is above 200 µM and the half-maximal inhibitory concentration (IC50) was 55 µM.

In the case of `CCCCCCCCCc1ccc(Oc2ccc3c(c2)-c2nc-3nc3[nH]c(nc4nc(nc5[nH]c(n2)c2ccc(Oc6ccc(CCCCCCCCC)cc6)cc52)-c2cc(Oc5ccc(CCCCCCCCC)cc5)ccc2-4)c2ccc(Oc4ccc(CCCCCCCCC)cc4)cc32)cc1`, the EC50 is above 13.5 µM and the IC50 was above 13.5 µM.

In the case of `Cc1c(Cl)c(=O)oc2cc(OCC(=O)c3ccccc3)ccc12`, the EC50 was above 100 µM and the IC50 was above 100 µM.

As for `O=[N+]([O-])c1ccc(-c2nn3c(C45CC6CC(CC(C6)C4)C5)nnc3s2)c(Cl)c1`, the EC50 is above 200 µM and the half-maximal inhibitory concentration (IC50) is above 200 µM.

As for `CCCC(O)[C@@]1(CC)CC(C)C(O)(C2(C)C[C@H](C)[C@@H](C(CC)C(=O)C(C)[C@@H](O)[C@H](C)C3OC(O)(C(CC)C(=O)O)[C@@H](C)C(O)C3CC)O2)O1` (some centres undefined), the concentration for a half-maximal effect (EC50) was 0.138 µM and the 50% inhibitory concentration (IC50) turned out to be 1.78 µM.

In the case of `Cc1nc2ccc(NC3OC(CO)C(O)C(O)C3O)cc2c(=O)n1-c1ccccc1` (centres undefined), the EC50 was above 200 µM and the IC50 was above 200 µM.

On to `O=C(Sc1ccccc1)C1OC12CCCCC2` (centres undefined), for which the EC50 was above 200 µM and the half-maximal inhibitory concentration (IC50) is 13.2 µM.
